Test results from patent US10662218B2, “Analogs of celastrol” (ERX Pharmaceuticals, Inc., priority 2015, dated 2020).
Values after ≈ are worked out from the molar mass of the structure shown. Values joined by “and” are separate entries in the source; they are usually repeats but may differ in a detail not shown here. Equal values may be shown once. “Also recorded” adds a separate entry of the source. Read-outs that look alike come from different tables or passages of the source.

How the values were obtained:
[1] = in vivo
[2] = Compound solubility in PBS (pH 7.4), LC-MS/MS; details: PBS (pH 7.4), pH 7.4, aqueous buffer, kinetic from dmso stock, Solubility (μM) Mean, Table 6-C, test concentration 100 μM (1% of DMSO), shaken (1000 rpm) 1 h at room temperature, n = 2
Procedure: • Test concentration: 100 μM (1% of DMSO) • Test systems: PBS (pH 7.4) • Incubation condition: shaken (1000 rpm) for 1 h at room temperature • Sample size: Duplicates (n=2) • Bioanalytical method: LC-MS/MS

[3] = system: C57BL/6 Diet Induced Obese (DIO) mice; experiment: Oral (P.O.) administration study in DIO mice: blood glucose level after 6 hours of fasting; type: in vivo, mouse; details: 2 mg/kg oral gavage once daily for 10 days, compared with controls
Procedure: (§1) Dose formulations were administered by oral gavage once daily for 10 days at a dose volume of 2 mL/kg. Doses were based on the most recently recorded scheduled body weight.
Blood for blood glucose was collected from all animals via tail clip on Day 14 of the predose phase, and Day 11 of the dosing phase after 6 hours of fasting. A drop of blood from each animal was placed onto two different Accu-Chek® Aviva glucometers to assess glucose values. A third value was taken, if necessary.
(§2) Descriptive statistics (n, mean, standard error of the mean, standard deviation) were completed. Additionally, one-way analysis of variance followed by Dunnett's post-hoc test were performed on body weight (cumulative body weight change), glucose (glucose percent change), and food consumption (cumulative food consumption). Area under the curve (for body weight, cumulative body weight change, daily body weight change, and food consumption) was computed for treatment groups. An appropriate comparison test, such as one-way analysis of variance and Dunnett's, was performed on the group means for the area under the curve computations. Any additional statistical analysis and interpretation of the results were the responsibility of the sponsor.

[4] = system: C57BL/6 Diet Induced Obese (DIO) mice; experiment: Oral (P.O.) administration study in DIO mice: food consumption; type: in vivo, mouse; details: 2 mg/kg oral gavage once daily for 10 days, compared with controls
Procedure: as §1
A quantitative assessment of food consumption was recorded daily on Days 11 through 14 of the predose phase and daily prior to dosing during the dosing phase.
as §2

[5] = system: C57BL/6 Diet Induced Obese (DIO) mice; experiment: Oral (P.O.) administration study in DIO mice: animal fate (mortality) and clinical observations; details: individual male DIO mouse, 2 mg/kg; phase of fate Dosing, phase week 2, phase day 11
Outline: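 Male C57BL/6 DIO mice received 2 mg/kg of each compound by oral gavage once daily for 10 days; vehicle was 1% methyl cellulose in citric acid/phosphate buffer. Mortality and clinical signs recorded alongside body weight, food intake and blood glucose; animals sacrificed Day 11.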

[6] = system: C57BL/6 Diet Induced Obese (DIO) mice; experiment: Oral (P.O.) administration study in DIO mice: in vivo activity, body weights; design: species or system mouse; details: for Individual Body Weight: individual male animals; for Body weight, Mean / change in vivo at 2 mg/kg: male; for change in vivo at 2 mg/kg: Mus musculus, po, read-out: Body weight, %-Diff
Outline: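 Male C57BL/6 DIO mice (21-22 weeks, 29.8-40.1 g) were gavage-acclimated with vehicle, then dosed orally once daily for 10 days at 2 mL/kg. Body weight was recorded daily before dosing. Cumulative change and AUC were analysed by one-way ANOVA with Dunnett's test.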

[7] = 2 mg/kg oral gavage once daily for 10 days, compared with controls

Cc1c(O)c(O)cc2c1C(=O)C=C1[C@@]2(C)CC[C@@]2(C)[C@@H]3C[C@](C)(C(=O)O)CC[C@]3(C)CC[C@]12C [ERX1030]
Oral bioavailability [1]: −

CC(=O)N[C@]1(C)CC[C@]2(C)CC[C@]3(C)C4=CC=C5C(=CC(=O)C(O)=C5C)[C@]4(C)CC[C@@]3(C)[C@@H]2C1 [ERX1168]
solubility at 1 h [2]: 5.05 µM (≈ 2.34 µg/mL) | glucose value percent change [3]: Statistically significant changes; also recorded: statistically significant decreases | area under the curve (AUC) for cumulative food intake [4]: statistically significant decreases | cumulative food intake [4]: statistically significant decreases | Individual Animal Fate: Fate Status [5]: Scheduled Sacrifice | area under the curve (AUC) for cumulative body weight change [6, 7]: statistically significant decreases | area under the curve (AUC) for daily body weight change [6, 7]: statistically significant decreases | cumulative body weight change [6, 7]: statistically significant decreases | Individual Body Weight ([6]; 2 mg/kg, Phase Day DSNG 3): 30.7 g and 37.3 g and 34.4 g and 30.5 g and 28.3 g | Individual Body Weight ([6]; 2 mg/kg, Phase Day DSNG 4): 30.0 g and 37.5 g and 34.2 g and 29.1 g and 28.9 g | Individual Body Weight ([6]; 2 mg/kg, Phase Day DSNG 5): 29.2 g and 36.1 g and 33.2 g and 28.8 g and 28.0 g | Individual Body Weight ([6]; 2 mg/kg, Phase Day DSNG 6): 28.4 g and 33.9 g and 31.6 g and 27.0 g and 26.7 g | Individual Body Weight ([6]; 2 mg/kg, Phase Day DSNG 7): 28.9 g and 32.3 g and 30.7 g and 27.0 g and 27.3 g | Individual Body Weight ([6]; 2 mg/kg, Phase Day DSNG 8): 28.7 g and 32.7 g and 29.5 g and 27.7 g and 26.9 g | Body weight, Mean ([6]; DIO mice, 2 mg/kg, phase DSNG, Day 7): 29.2 g | Body weight, Mean ([6]; DIO mice, 2 mg/kg, phase DSNG, Day 8): 29.1 g | Body weight, Mean ([6]; DIO mice, 2 mg/kg, phase DSNG, Day 9): 30.0 g | Body weight, Mean ([6]; DIO mice, 2 mg/kg, phase DSNG, Day 10): 29.2 g | Body weight, Mean ([6]; DIO mice, 2 mg/kg, phase DSNG, Day 11): 29.2 g | Body weight, Mean ([6]; Day 1, DSNG phase, 2 mg/kg, N=5): 34.5 g | Body weight, Mean ([6]; Day 2, DSNG phase, 2 mg/kg, N=5): 34.0 g | Body weight, Mean ([6]; Day 3, DSNG phase, 2 mg/kg, N=5): 32.2 g | Body weight, Mean ([6]; Day 4, DSNG phase, 2 mg/kg, N=5): 31.9 g | Body weight, Mean ([6]; Day 5, DSNG phase, 2 mg/kg, N=5): 31.1 g | Body weight, Mean ([6]; Day 6, DSNG phase, 2 mg/kg, N=5): 29.5 g | change in vivo at 2 mg/kg ([6]; 24 h, Day 1, DSNG phase, 2 mg/kg, difference of group mean): 1% | change in vivo at 2 mg/kg ([6]; 48 h, Day 2, DSNG phase, 2 mg/kg, difference of group mean): -1% | change in vivo at 2 mg/kg ([6]; 72 h, Day 3, DSNG phase, 2 mg/kg, difference of group mean): -5% | change in vivo at 2 mg/kg ([6]; 96 h, Day 4, DSNG phase, 2 mg/kg, difference of group mean): -4% | change in vivo at 2 mg/kg ([6]; 120 h, Day 5, DSNG phase, 2 mg/kg, difference of group mean): -8% | change in vivo at 2 mg/kg ([6]; 144 h, Day 6, DSNG phase, 2 mg/kg, difference of group mean): -12% | change in vivo at 2 mg/kg ([6]; 168 h, DIO mice, 2 mg/kg, phase DSNG, Day 7, difference of group mean from vehicle group 1): -13% | change in vivo at 2 mg/kg ([6]; 192 h, DIO mice, 2 mg/kg, phase DSNG, Day 8, difference of group mean from vehicle group 1): -14% | change in vivo at 2 mg/kg ([6]; 216 h, DIO mice, 2 mg/kg, phase DSNG, Day 9, difference of group mean from vehicle group 1): -10% | change in vivo at 2 mg/kg ([6]; 240 h, DIO mice, 2 mg/kg, phase DSNG, Day 10, difference of group mean from vehicle group 1): -13% | change in vivo at 2 mg/kg ([6]; 264 h, DIO mice, 2 mg/kg, phase DSNG, Day 11, difference of group mean from vehicle group 1): -14% | Individual Body Weight, DSNG 1 ([6]; individual male DIO mouse, 2 mg/kg, dosing phase day 1, 2 mg/kg): 33.1 g and 39.5 g and 36.9 g and 31.9 g and 31.1 g | Individual Body Weight, DSNG 2 ([6]; individual male DIO mouse, 2 mg/kg, dosing phase day 2, 2 mg/kg): 32.5 g and 40.4 g and 36.2 g and 31.2 g and 29.9 g | Individual Body Weight, PRED 11 ([6]; individual male DIO mouse, group dosed 2 mg/kg, pre-dose phase day 11 (baseline), 2 mg/kg): 35.6 g and 39.3 g and 37.3 g and 35.3 g and 33.0 g | Individual Body Weight, PRED 12 ([6]; individual male DIO mouse, group dosed 2 mg/kg, pre-dose phase day 12 (baseline), 2 mg/kg): 35.2 g and 40.3 g and 37.2 g and 33.1 g and 31.0 g | Individual Body Weight, PRED 13 ([6]; individual male DIO mouse, group dosed 2 mg/kg, pre-dose phase day 13 (baseline), 2 mg/kg): 35.0 g and 40.4 g and 37.2 g and 32.5 g and 30.6 g | Individual Body Weight, PRED 14 ([6]; individual male DIO mouse, group dosed 2 mg/kg, pre-dose phase day 14 (baseline), 2 mg/kg): 35.1 g and 41.2 g and 37.5 g and 33.3 g and 32.1 g
